Consider 21 compounds from US11622970B2, “BCL-2 inhibitors and their use as pharmaceuticals” (PRELUDE THERAPEUTICS INCORPORATED, priority 2020, dated 2023).

Structures are written as SMILES. Where only a bound is given, the exact number is not on record here.

This test addresses BCL-2 recombinant protein (Homo sapiens, UniProt P10415). Kind of test: Cell free Bcl-2:Bak affinity assay (Bcl-2 Bak), HTRF competition of FAM-Bak peptide. It counts as binding. To be noted: 4 nM BCL-2 recombinant protein, 100 nM FAM-Bak; for inhibition at 1 µM: 1 μM compound, read-out: potency (% inhibition at 1 μM); for IC50: 10-concentration IC50 mode, read-out: potency (IC50). On the procedure:
Biological Assays: Cell Free Bcl-2:Bak Affinity Assay (Bcl-2 Bak)
The assay is based on the competition of fluorescently labeled peptide binding to BCL-2 and the binding is monitored by HTRF signals between anti-GST-Tb and FAM-peptide using GST-Tag BCL proteins. Testing compounds were dissolved in DMSO at 10 mM and tested in 10-concentration IC50 mode. The compounds of interest in DMSO were added in 3-fold serial dilution to each well containing 4 nM of BCL-2 recombinant protein, 20 mM K Phosphate, pH 7.5, 50 mM NaCl, 1 mM EDTA, 0.005% Triton X-100, by using acoustic technology (Labcyte echo 550), After 10 minutes incubation at room temperature, 100 nM of FAM-Bak was added and incubated for another 10 minutes before addition of Anti-GST-Tb. The plate was then sealed and further incubated at room temperature for 60 minutes in the dark before reading. Percentage of inhibition was calculated by % inhibition=100×(FDMSO−F)/(FDMSO−FPC), in which FDMSO is DMSO control and FPC is a positive control. IC50 values were determined from dose-response curve by fitting the percent inhibition against compound concentration using GraphPad Prism software.

BCL-2 recombinant protein, sequence (P10415 whole entry): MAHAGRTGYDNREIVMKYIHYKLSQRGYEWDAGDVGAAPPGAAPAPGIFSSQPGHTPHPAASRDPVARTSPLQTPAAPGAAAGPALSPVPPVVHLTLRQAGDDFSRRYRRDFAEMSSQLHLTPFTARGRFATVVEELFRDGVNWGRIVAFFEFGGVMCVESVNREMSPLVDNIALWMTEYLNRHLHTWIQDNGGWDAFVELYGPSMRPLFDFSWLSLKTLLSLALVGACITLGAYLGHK

With `Cc1onc(C(=O)NS(=O)(=O)c2ccc(N3CCN(CC4=C(c5ccc(Cl)cc5)CC(C)(C)CC4)CC3)cc2)c1C` [Example 17, N-([4-[4-[[2-(4-chlorophenyl)-4,4-dimethylcyclohexen-1-yl]methyl]piperazin-1-yl]phenyl]sulfonyl)-4,5-dimethylisoxazole-3-carboxamide], the inhibition at 1 µM lay in the range of 50 to 90%.

Turning to `COc1ncc(-c2nc(C(=O)NS(=O)(=O)c3ccc(N4CCN(CC5=C(c6ccc(Cl)cc6)CC(C)(C)CC5)CC4)cc3)ccc2F)cn1` [Example 57, N-[4-[4-[[2-(4-Chlorophenyl)-4,4-dimethylcyclohexen-1-yl]methyl]piperazin-1-yl]phenyl]sulfonyl-5-fluoro-6-(2-methoxypyrimidin-5-yl)pyridine-2-carboxamide], the inhibition at 1 µM lay within 50 to 90%.

For the compound `CCNc1c([N+](=O)[O-])cc(C(=O)NS(=O)(=O)c2ccc(N3CCN(CC4=C(c5ccc(Cl)cc5)CC(C)(C)CC4)CC3)cc2Oc2cnc3[nH]ccc3c2)c(Cl)c1C` [Example 99, 2-chloro-N-[4-[4-[[2-(4-chlorophenyl)-4,4-dimethylcyclohexen-1-yl]methyl]piperazin-1-yl]-2-(1H-pyrrolo[2,3-b]pyridin-5-yloxy)phenyl]sulfonyl-4-(ethylamino)-3-methyl-5-nitrobenzamide], the IC50 lay in the range of 10 to 100 nM.

With `CC1(C)CCC(CN2CCN(c3ccc(S(=O)(=O)NC(=O)c4ccc(COc5cc(Cl)ccc5Cl)cc4)cc3)CC2)=C(c2ccc(Cl)cc2)C1` [Example 35, N-([4-[4-[[2-(4-chlorophenyl)-4,4-dimethylcyclohexen-1-yl]methyl]piperazin-1-yl]phenyl]sulfonyl)-4-((2,5-dichlorophenoxy)methyl)benzamide], the inhibition at 1 µM was over 90%.

Take `Cc1nc(C(=O)NS(=O)(=O)c2ccc(N3CCN(CC4=C(c5ccc(Cl)cc5)CC(C)(C)CC4)CC3)cc2Oc2cnc3[nH]ccc3c2)ccc1F` [Example 69, N-[4-[4-[[2-(4-chlorophenyl)-4,4-dimethylcyclohexen-1-yl]methyl]piperazin-1-yl]-2-(1H-pyrrolo[2,3-b]pyridin-5-yloxy)phenyl]sulfonyl-5-fluoro-6-methylpyridine-2-carboxamide]: the IC50 lay in the range of 10 to 100 nM.

For `Cc1c(Cl)c(C(=O)NS(=O)(=O)c2ccc(N3CCN(CC4=C(c5ccc(Cl)cc5)CC(C)(C)CC4)CC3)cc2)cc([N+](=O)[O-])c1NCC1CCOCC1` [Example 42, 2-Chloro-N-([4-[4-[[2-(4-chlorophenyl)-4,4-dimethylcyclohexen-1-yl]methyl]piperazin-1-yl]phenyl]sulfonyl)-3-methyl-5-nitro-4-(tetrahydropyran-4-ylmethylamino)benzamide], the inhibition at 1 µM is over 90%.

With `CC1(C)CCC(CN2CCN(c3ccc(S(=O)(=O)NC(=O)c4ccccn4)cc3)CC2)=C(c2ccc(Cl)cc2)C1` [Example 24, N-([4-[4-[[2-(4-chlorophenyl)-4,4-dimethylcyclohexen-1-yl]methyl]piperazin-1-yl]phenyl]sulfonyl)pyridine-2-carboxamide], the inhibition at 1 µM was 50 to 90%.

For the compound `CC1(C)CCC(CN2CCN(c3ccc(S(=O)(=O)NC(=O)c4cc([N+](=O)[O-])c(NCC5CCOCC5)cc4Cl)cc3)CC2)=C(c2ccc(Cl)cc2)C1` [Example 41, 2-Chloro-N-[4-[4-[[2-(4-chlorophenyl)-4,4-dimethylcyclohexen-1-yl]methyl]piperazin-1-yl]phenyl]sulfonyl-5-nitro-4-(tetrahydropyran-4-ylmethylamino)benzamide], the inhibition at 1 µM was in the range of 50 to 90%.

Turning to `CC1(C)CCC(CN2CCN(c3ccc(S(=O)(=O)NC(=O)c4ccc(F)c(COc5ccc(Cl)cc5)c4)cc3)CC2)=C(c2ccc(Cl)cc2)C1` [Example 37, N-([4-[4-[[2-(4-chlorophenyl)-4,4-dimethylcyclohexen-1-yl]methyl]piperazin-1-yl]phenyl]sulfonyl)-3-((4-chlorophenoxy)methyl)-4-fluorobenzamide], the IC50 was in the range of 10 to 100 nM.

Turning to `CC1(C)CCC(CN2CCN(c3ccc(S(=O)(=O)NC(=O)c4cc(COc5ccc(Cl)cc5)cc([N+](=O)[O-])c4)c(Oc4cnc5[nH]ccc5c4)c3)CC2)=C(c2ccc(Cl)cc2)C1` [Example 86, 3-[(4-Chlorophenoxy)methyl]-N-[4-[4-[[2-(4-chlorophenyl)-4,4-dimethylcyclohexen-1-yl]methyl]piperazin-1-yl]-2-(1H-pyrrolo[2,3-b]pyridin-5-yloxy)phenyl]sulfonyl-5-nitrobenzamide], the IC50 is 10 to 100 nM.

`CC1(C)CCC(CN2CCN(c3ccc(S(=O)(=O)NC(=O)c4ccc5ncccc5c4)cc3)CC2)=C(c2ccc(Cl)cc2)C1` [Example 5, N-([4-[4-[[2-(4-chlorophenyl)-4,4-dimethylcyclohexen-1-yl]methyl]piperazin-1-yl]phenyl]sulfonyl)quinoline-6-carboxamide]: the inhibition at 1 µM fell in the range of 50 to 90%.

For `CC1(C)CCC(CN2CCN(c3ccc(S(=O)(=O)NC(=O)c4ccc([N+](=O)[O-])c(Cl)n4)c(Oc4cnc5[nH]ccc5c4)c3)CC2)=C(c2ccc(Cl)cc2)C1` [Example 72, 6-Chloro-N-[4-[4-[[2-(4-chlorophenyl)-4,4-dimethylcyclohexen-1-yl]methyl]piperazin-1-yl]-2-(1H-pyrrolo[2,3-b]pyridin-5-yloxy)phenyl]sulfonyl-5-nitropyridine-2-carboxamide], the IC50 lay within 10 to 100 nM.

`Cc1c(Cl)c(C(=O)NS(=O)(=O)c2ccc(N3CCN(CC4=C(c5ccc(Cl)cc5)CC(C)(C)CC4)CC3)cc2Oc2cnc3[nH]ccc3c2)cc([N+](=O)[O-])c1OCC1CCOCC1` [Example 81, 2-Chloro-N-[4-[4-[[2-(4-chlorophenyl)-4,4-dimethylcyclohexen-1-yl]methyl]piperazin-1-yl]-2-(1H-pyrrolo[2,3-b]pyridin-5-yloxy)phenyl]sulfonyl-3-methyl-5-nitro-4-(oxan-4-ylmethoxy)benzamide]: the IC50 is under 10 nM.

As for `Cc1cc([N+](=O)[O-])cc(C(=O)NS(=O)(=O)c2ccc(C3=CCN(CC4=C(c5ccc(Cl)cc5)CC(C)(C)CC4)CC3)cc2F)n1` [Example 65, N-[4-[1-[[2-(4-Chlorophenyl)-4,4-dimethylcyclohexen-1-yl]methyl]-3,6-dihydro-2H-pyridin-4-yl]-2-fluorophenyl]sulfonyl-6-methyl-4-nitropyridine-2-carboxamide], the IC50 was under 10 nM.

For the compound `CC1(C)CCC(CN2CCN(c3ccc(S(=O)(=O)NC(=O)C45CC(C4)C5)cc3)CC2)=C(c2ccc(Cl)cc2)C1` [Example 7, N-([4-[4-[[2-(4-chlorophenyl)-4,4-dimethylcyclohexen-1-yl]methyl]piperazin-1-yl]phenyl]sulfonyl)bicyclo[1.1.1]pentane-1-carboxamide], the inhibition at 1 µM was in the range of 50 to 90%.

As to `CC1(C)CCC(CN2CCN(c3ccc(S(=O)(=O)NC(=O)c4ccc5sccc5c4)cc3)CC2)=C(c2ccc(Cl)cc2)C1` [Example 3, N-[4-[4-[[2-(4-chlorophenyl)-4,4-dimethylcyclohexen-1-yl]methyl]piperazin-1-yl]phenyl]sulfonylbenzo[b]thiophene-5-carboxamide], the inhibition at 1 µM was 50 to 90%.

As to `CC1(C)CCC(CN2CCN(c3ccc(S(=O)(=O)NC(=O)c4cccc([N+](=O)[O-])c4)cc3)CC2)=C(c2ccc(Cl)cc2)C1` [Example 32, N-([4-[4-[[2-(4-chlorophenyl)-4,4-dimethylcyclohexen-1-yl]methyl]piperazin-1-yl]phenyl]sulfonyl)-3-nitrobenzamide], the IC50 is over 1000 nM.

Take `CC1(C)CCC(CN2CCN(c3ccc(S(=O)(=O)NC(=O)c4ccc(Cl)c(Cl)n4)cc3)CC2)=C(c2ccc(Cl)cc2)C1` [Example 20, 5,6-dichloro-N-([4-[4-[[2-(4-chlorophenyl)-4,4-dimethylcyclohexen-1-yl]methyl]piperazin-1-yl]phenyl]sulfonyl)pyridine-2-carboxamide]: the inhibition at 1 µM fell in the range of 50 to 90%.

Turning to `Cc1cc(C(=O)NS(=O)(=O)c2ccc(N3CCN(CC4=C(c5ccc(Cl)cc5)CC(C)(C)CC4)CC3)cc2Oc2cnc3[nH]ccc3c2)cc([N+](=O)[O-])c1` [Example 79, N-[4-[4-[[2-(4-chlorophenyl)-4,4-dimethylcyclohexen-1-yl]methyl]piperazin-1-yl]-2-(1H-pyrrolo[2,3-b]pyridin-5-yloxy)phenyl]sulfonyl-3-methyl-5-nitrobenzamide], the IC50 was in the range of 10 to 100 nM.

For the compound `CC1(C)CCC(CN2CCN(c3ccc(S(=O)(=O)NC(=O)c4cnc5ccccc5c4)cc3)CC2)=C(c2ccc(Cl)cc2)C1` [Example 9, N-((4-(4-((4′-chloro-5,5-dimethyl-3,4,5,6-tetrahydro-[1,1′-biphenyl]-2-yl)methyl)piperazin-1-yl)phenyl)sulfonyl)quinoline-3-carboxamide], the inhibition at 1 µM lay in the range of 50 to 90%.

As for `CC1(C)CCC(CN2CCN(c3ccc(S(=O)(=O)NC(=O)c4ccc([N+](=O)[O-])c(COc5ccc(Cl)cc5)c4)c(Oc4cnc5[nH]ccc5c4)c3)CC2)=C(c2ccc(Cl)cc2)C1` [Example 95, 3-[(4-Chlorophenoxy)methyl]-N-[4-[4-[[2-(4-chlorophenyl)-4,4-dimethylcyclohexen-1-yl]methyl]piperazin-1-yl]-2-(1H-pyrrolo[2,3-b]pyridin-5-yloxy)phenyl]sulfonyl-4-nitrobenzamide], the IC50 was 100 to 1000 nM.

As a reminder, the inhibition is the percentage by which the read-out fell short of the control. For orientation: IC50 means the midpoint of a concentration-inhibition curve.
